Test results: patent US20020086027A1, “Composition and method for enhancing immunological memory response” (priority 1998, published 2002)

Legend:
CD25+ CD4 T cells = test: Flow cytometry of CD25 and Fas (CD95) on primed cells; type: cell-based, human; conditions: aphidicolin 1 ug/ml present during two-day rest period
Method: For analysis of cell surface markers, primed cell populations separated on Ficoll-Paque gradients were used. […] Briefly, 1-3×10^5 cells per well were stained with primary antibodies at 4° C., followed by appropriately labeled secondary reagents if required. Samples were analyzed using a Bryte flow cytometer (bio-Rad, Hemel Hampstead, UK). Antibodies to the T cell markers CD3 (OKT3), CD4 (OKT4), and to the activation markers CD25 and Fas (CD95) were used for staining. To detect apoptosis using propidium iodide (PI, Sigma Chemical Co.), antibody-stained cells were fixed and permeabilized with 70% ethanol, washed, and PI […] added just before cytometric analysis. Data were analyzed using FlowJo software (Treestar, San Jose, Calif.).
The phenotype of CD4 T cells activated during priming in vitro was examined next using various markers associated with T cell activation. Antibodies against CD25 (IL-2Ra), CD26, CD45RO, CD69 and gp240 were used, but except for CD25, none of the other markers gave consistent and reliable results (data not shown). CD25 expression on CD4 T cells in the responder populations was examined in a two-color flow cytometric analysis at two separate time points,—at the end of six days of priming and after two further rest days in culture after washing and resuspension in resh medium without any stimuli. Most CD25-expressing cells in the primed cultures were CD4 T cells. […] The frequency of CD25 expression increased in the PBMC-primed responders (FIG. 17B) and this percentage was lower if POX (100 μg/ml) was present during priming (FIG. 17C). […] Similar data were observed if dbcAMP was present during priming (data not shown). It can be seen that the proportion of CD25* cells was reproducibly lower if POX was present during priming with allo-PBMCs. However, after 48 hours of rest in culture, the frequency of CD25* cells declined in the populations primed in the absence of POX, while it went up in the group primed under POX cover.

human T cells [1] = test: Secondary (recall) alloproliferative response of T cells primed in vitro; type: cell-based
Method: In this system, we have used responses to first exposure as an indication of primary responses. When cells stimulated in this fashion are rested in culture and then restimulated with the same stimulator PBMCs, the 'recall' response measured are taken as an indication of immune memory. Proliferation is measured by the incorporation of radioactive tritiated thymidine in dividing cells. For priming, responder and stimulator cells mixed in 2-5 ml cultures in a ratio of 1:1-3:1. After five days of incubation, the cells were harvested, counted and viable cells used as primed responders with g-irradiated allostimulators in secondary alloproliferation assays, which were pulsed with (H^3)-thymidine after four days for estimating cell proliferation. For flow cytometric analysis, cells were separated from debris by Ficoll-Paque gradient centrifugation before staining. […] Sigma Chemical Co.) at room temperature for 20 minutes, washed extensively and used. For priming in vitro, responder PBMCs were incubated for 72 or 144 h at a ratio of either 1:1 or 2:1 respectively, with stimulator PBMCs. Where appropriate, CsA. Aph. and/or […] were added at the concentrations indicated, of PFA-fixed PBMCs were used instead.

human T cells [2] = test: Primary alloproliferative response of responder PBMCs to irradiated MHC-mismatched stimulator PBMCs ([3H]thymidine incorporation); type: cell-based
Method: In this system, we have used responses to first exposure as an indication of primary responses. When cells stimulated in this fashion are rested in culture and then restimulated with the same stimulator PBMCs, the 'recall' response measured are taken as an indication of immune memory. Proliferation is measured by the incorporation of radioactive tritiated thymidine in dividing cells. PBMCs from HLA-mismatched individuals were separated using density-gradient centrifugation on Ficoll-Paque (Pharmacia, Uppsala, Sweden). Stimulator PBMCs were used in titrated doses after g-irradiation (200 rads). For the primary proliferative alloresponses, stimulator in graded doses were used with 1-3×10^5 responders per well in 200 μl of RPMI-1640 (Life Technologies, Grand Island, N.Y.) fortified with L-glutamine (Life Technologies) and antibiotics, containing 10% heat-inactivated responder autologous serum. Cultures were incubated in a CO2 atmosphere for five days, pulsed with 0.5 uCi of (H^3)-thymidine (New England Nuclear, Boston, Mass.) for the last 8-12 hours of the assay and harvested onto glass fiber filters for counting cell-incorporated thymidine (Betaplate; Wallac, Finland). results are expressed as mean cpm±SE for triplicate cultures. Dibutyryl cyclic AMP (dbcAMP), pentoxifylline (POX), aphidicolin (all from Sigma Chemical Co., St Louis, Mo.) and recombinant IL-2 (Boehringer Manheim Corp., Manheim Germany) were added singly or together to the culture in various doses as indicated during priming and in primary alloresponse assays. […] Sigma Chemical Co.) at room temperature for 20 minutes, washed extensively and used. PBMCs from MHC-mismatched donors were used as responder-stimulator pairs. Stimulator cells were used after γ-irradiation (200 rad) at various concentrations, as shown. Proliferation assays were set up as parallel cultures and were pulsed and harvested as below on different days when necessary for the analyses of the kinetics of the response. Where appropriate, cyclosporin A (CsA, Sandoz, Milan, Italy), aphidicolin (Aph, Sigma Chemical Co., and/or pentoxifylline ([…], Sigma Chemical Co.) Were added at the concentrations indicated, or PFA-fixed PBMCs were used. The plated were pulsed with 0.5 to 1 μCi of (^3H)thymidine ([^3H]TdR. Amersham, Little Chalfont, U.K.) During the last 12 to 16 h of the assay (4 days for a recall assay and 6 days for a primary assay, unless indicated otherwise). [^3H] TdR incorporation was measured by harvesting the cultures on glass-fibers and counting in a scintillation counter (Betaplate: LKB-Pharmacia. Uppsala, […]). The results are expressed as mean cpm±SE of triplicate cultures.

[3] = system: allo-specific precursor T cells; test: Limiting dilution analysis of clonal responder frequency and burst size; type: cell-based, human; conditions: drug present during priming (POX 100 ug/ml)
Text: Limiting dilution analyses were used to calculate the number of transplantation antigen-specific memory T cells in cultures primed in the presence or absence of POX. Multiple replicate wells of titrated numbers of primed responders were restimulated. the numbers of wells showing proliferative responses at each responder dose were used to calculate the frequency of responding memory t cells in the primed populations. estimates of the extent of proliferation in wells effectively containing single responder cells served as a measure of clonal burst size. […] To determine the frequence of all-specific precursor cells in the various responder populations, titrating numbers (from 10,000 to 200 per well) of variously primed cells were added to a constant number (1×10^5 per well) of g-irradiated stimulator PBMCs. Of the 48 wells plated per responder dose, those wells showing a response at least twice that of the background value were scored positive. The responder frequency was calculated by taking the number of negative wells into account. The response was considered clonal at the responder cell number where the proportion of positively responding wells was less than 37%. At responder cell concentrations showing clonal frequencies, the average cpm values of responding (versus non-responding) wells were used as an estimate of the average clonal burst size of single responding T cells.

Which “increase in frequency of CD25+ cells in responders exposed to POX during priming” value (CD25+ CD4 T cells) does the source give for C[C@@]1(CO)[C@H](O)CC[C@@]2(C)[C@H]1CC[C@H]1C[C@@H]3C[C@@]12CC[C@]3(O)CO [Aph, aphidicolin] here?
The value was “does not abrogate”.

What about the “responses of unprimed PBMCs incubated with Aph” value (human T cells [1]; no stimulators) of the same compound?
Its value is “unaltered”.

What about the recall response (human T cells [1]; primed with 1 μg/ml Aph vs primed in absence of Aph) of the same compound?
The recall response was “comparable”.

And the recall response (human T cells [1]; primed with 3 μg/ml Aph)?
Its recall response is “significant enhancement”.

And the “T cell proliferation in first response” value (human T cells [2]; 1 μg/ml Aph)?
The value was “inhibited substantially”.

And the “T cell proliferation in first response” value (human T cells [2]; 3 μg/ml Aph)?
The value was “completely undetectable”.

And the “kinetics of primary response” value (human T cells [2]; days 4-10, drugs present throughout)?
Its value is “declines equivalently”.

What about the “primary response after drug removal” value (human T cells [2]; drugs removed on day 6, pulsed days 8 and 10) of the same compound?
The value was “no increase”.

Which “frequency of alloreactive responder (memory) T cells” value [3] does the source give for CCCC(=O)Nc1ncnc2c1ncn2[C@@H]1O[C@@H]2COP(=O)(O)O[C@H]2[C@H]1OC(=O)CCC [dbcAMP, Dibutyryl cyclic AMP] here?
The value was “significantly enhances”.

What about the recall response (human T cells [1]; priming in presence of 10 mM dbcAMP) of the same compound?
The recall response was “No effect”.

What about the secondary response (human T cells [1]; priming in presence of 100 mM dbcAMP) of the same compound?
Its secondary response is “significant enhancement”.

What about the primary proliferative response (human T cells [2]; 1 mM dbcAMP) of the same compound?
The primary proliferative response was “inhibits”.

And the primary proliferative response (human T cells [2]; 10 mM dbcAMP)?
Its primary proliferative response is “No effect”.

And the primary proliferative response (human T cells [2]; 100 mM dbcAMP)?
Its primary proliferative response is “does inhibit”.

With paraformaldehyde [PFA] as the compound, how does the “recall response capability induced by PFA-fixed APCs” value (human T cells [1]; 0.003% PFA, vs unfixed APCs) read?
The value was “comparable with or greater than”.

And the “recall response of cells primed with PFA-fixed APCs” value (human T cells [1]; 0.3% PFA, vs unprimed cells)?
Its value is “distinctly lower”.

What about the “primary alloproliferative response to PFA-fixed APCs” value (human T cells [2]; 0.0003% PFA) of the same compound?
The value was “significant lowering”.
